The assay addresses human hematopoietic prostaglandin D2 synthase (Homo sapiens, UniProt O60760). The assay can be described thus: Inhibitory activity against spleen-type (hematopoietic) prostaglandin D2 synthase, [14C]PGH2 to PGD2, TLC. To be noted: for inhibition at 10 µM / inhibition at 30 µM: read-out: Inhibitory Ratio of Prostaglandin D2 (PGD2) Synthase (%). The assay is classed as biochemical. On the procedure:
A buffer solution of 100 mM Tris (hydroxymethyl)aminomethane/HCl buffer (pH8.0) containing glutathione (0.1 mM) and human hematopoietic prostaglandin D2 synthase (adequate quantity) was preincubated at 25° C. for 5 minutes in the presence or absence of a test compound, and then 14C labeled prostaglandin H2 ([14C]PGH2) (10 μM) was added, and the buffer solution was further incubated at 25° C. for one minute. A mixture of ether, methanol, and citric acid was added to the reaction mixture, and the ether layer was developed on silica gel thin-layer chromatography (TLC) (eluent=ether: methanol: acetic acid=90:2:1), and the PGD2 produced was measured by exposure to an imaging plate. The enzyme inhibitory rates of test compounds were calculated assuming the amount of production of PGD2 without the test compound being 100%.

Chain of human hematopoietic prostaglandin D2 synthase (O60760 whole entry): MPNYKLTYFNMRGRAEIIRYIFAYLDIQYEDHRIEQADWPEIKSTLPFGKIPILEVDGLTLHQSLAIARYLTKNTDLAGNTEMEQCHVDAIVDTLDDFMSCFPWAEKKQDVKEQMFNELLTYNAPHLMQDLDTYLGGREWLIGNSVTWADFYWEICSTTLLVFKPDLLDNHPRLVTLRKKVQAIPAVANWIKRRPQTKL

Turning to `CCc1nn(-c2ccccc2)c(O)c1/C=N/n1c(C)nc2ccccc2c1=O` [Compound 6, 3-[(3-ethyl-5-hydroxy-1-phenylpyrazol-4-yl)methylidene]-amino-2-methyl-3,4-dihydroquinazolin-4-one], the inhibition at 10 µM (Drug Concentration 10 μM) stood at 18%.
With `CCOC(=O)CCCc1nn(-c2ccccc2)c(O)c1C=Nn1c(C)nc2ccccc2c1=O` [Compound 11, 3-({3-[3-(ethoxycarbonyl)propyl]-5-hydroxy-1-phenylpyrazol-4-yl}methylidene)amino-2-methyl-3,4-dihydroquinazolin-4-one], where the note is “Drug Concentration 10 μM”, the inhibition at 10 µM came to 45%.
Still for that read-out and setting: to `Cc1nc2ccccc2c(=O)n1N=Cc1c(CCCC(=O)O)nn(-c2ccccc2)c1O` [Compound 12, 3-{[3-(3-carboxypropyl)-5-hydroxy-1-phenylpyrazol-4-yl]methylidene}amino-2-methyl-3,4-dihydroquinazolin-4-one] belongs 46%.
As for `Cc1nn(C)c(O)c1/C=N/n1c(C)nc2ccccc2c1=O` [Compound 14, 3-[(1,3-dimethyl-5-hydroxypyrazol-4-yl)methylidene]amino-2-methyl-3,4-dihydroquinazolin-4-one], the inhibition at 10 µM (Drug Concentration 10 μM) is -2%. Also, where the note is “Drug Concentration 30 μM”, the inhibition at 30 µM worked out at 27%.
As for `Cc1nn(-c2ccccc2Cl)c(O)c1C=Nn1c(C)nc2ccccc2c1=O` [Compound 15, 3-{[1-(2-chlorophenyl)-3-methyl-5-hydroxypyrazol-4-yl]-methylidene}amino-2-methyl-3,4-dihydroquinazolin-4-one], the inhibition at 10 µM (Drug Concentration 10 μM) came out at 20%. In addition, under “Drug Concentration 30 μM”, the inhibition at 30 µM was 53%.
Consider `Cc1nn(-c2cccc(Cl)c2)c(O)c1C=Nn1c(C)nc2ccccc2c1=O` [Compound 16, 3-{[1-(3-chlorophenyl)-3-methyl-5-hydroxypyrazol-4-yl]-methylidene}amino-2-methyl-3,4-dihydroquinazolin-4-one], for which, where the note is “Drug Concentration 10 μM”, the inhibition at 10 µM was found to be 50%. Where the note is “Drug Concentration 30 μM”, the inhibition at 30 µM amounted to 81%.
Taken in the same sequence, the figures for `Cc1ccc(-n2nc(C)c(C=Nn3c(C)nc4ccccc4c3=O)c2O)cc1` [Compound 18, 3-{[3-methyl-1-(4-methylphenyl)-5-hydroxypyrazol-4-yl]-methylidene}amino-2-methyl-3,4-dihydroquinazolin-4-one] were 23% and 37%.
Taken in the same sequence, the figures for `COc1ccc(-n2nc(C)c(C=Nn3c(C)nc4ccccc4c3=O)c2O)cc1` [Compound 19, 3-{[3-methyl-1-(4-methoxyphenyl)-5-hydroxypyrazol-4-yl]-methylidene}amino-2-methyl-3,4-dihydroquinazolin-4-one] were 6% and 50%.
Regarding `CCc1nc2ccccc2c(=O)n1/N=C/c1c(C)nn(-c2ccccc2)c1O` [Compound 21], the inhibition at 10 µM (Drug Concentration 10 μM) turned out to be 13%. For the same compound, the inhibition at 30 µM (Drug Concentration 30 μM) turned out to be 51%.
Taken in the same sequence, the figures for `Cc1nn(-c2ccccc2)c(O)c1/C=N/n1c(C(C)C)nc2ccccc2c1=O` [Compound 22, 3-[(5-hydroxy-3-methyl-1-phenylpyrazol-4-yl)methylidene]-amino-2-isopropyl-3,4-dihydroquinazolin-4-one] were 14% and 44%.
Taken in the same sequence, the figures for `Cc1nn(-c2ccccc2)c(O)c1/C=N/n1c(CO)nc2ccccc2c1=O` [Compound 26, 3-[(5-hydroxy-3-methyl-1-phenylpyrazol-4-yl)methylidene]-amino-2-hydroxymethyl-3,4-dihydroquinazolin-4-one] were 86% and 71%.
Taken in the same sequence, the figures for `O=c1c2ccccc2nc(CO)n1/N=C/c1c(C(F)(F)F)nn(-c2ccccc2)c1O` [Compound 28] were 19% and 30%.
On to `COCc1nc2ccccc2c(=O)n1N=Cc1c(C)nn(-c2ccccc2)c1O` [Compound 29, 3-[(5-hydroxy-3-methyl-1-phenylpyrazol-4-yl)methylidene]-amino-2-methoxymethyl-3,4-dihydroquinazolin-4-one], for which the “Inhibitory Ratio of Prostaglandin D2 (PGD2) Synthase (%)” value is 20% (Drug Concentration 10 μM) and 40% (Drug Concentration 30 μM).

The values above are taken from patent US20060229324A1, “Quinazolin-4-one derivatives” (priority 2002, published 2006).
